These results are taken from patent US20230040770A1, “HETEROCYCLIC COMPOUND AND USE THEREOF” (TAKEDA PHARMACEUTICAL COMPANY LIMITED, priority 2019, published 2023).

The target of this assay is T1, human orexin type 2 receptor (Homo sapiens, UniProt O43614).
T1 construct: expressed in transfected cells
T1 sequence (O43614 1-444): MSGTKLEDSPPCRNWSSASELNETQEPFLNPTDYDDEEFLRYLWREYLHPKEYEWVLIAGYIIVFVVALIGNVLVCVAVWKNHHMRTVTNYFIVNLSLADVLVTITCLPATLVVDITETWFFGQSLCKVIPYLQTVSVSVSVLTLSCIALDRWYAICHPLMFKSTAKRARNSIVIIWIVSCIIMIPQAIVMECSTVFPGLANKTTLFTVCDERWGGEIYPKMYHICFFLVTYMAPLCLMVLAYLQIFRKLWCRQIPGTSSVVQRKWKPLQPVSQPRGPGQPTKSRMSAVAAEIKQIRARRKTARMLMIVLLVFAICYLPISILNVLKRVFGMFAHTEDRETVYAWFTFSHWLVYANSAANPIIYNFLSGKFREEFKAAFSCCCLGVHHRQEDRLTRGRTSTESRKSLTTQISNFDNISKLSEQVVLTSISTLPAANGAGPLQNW
The assay can be described thus: Measurement of orexin type 2 receptor agonist activity (calcium indicator fluorescence, CHO cells forcibly expressing human OX2 receptor). Conditions: compound at 3 μM; 0% = DMSO, 100% = orexin A (human) 10 nM. It counts as cell-based. The procedure, abridged:
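Agonist response normalised between vehicle (0%) and orexin A at 10 nM final (100%), from kinetic Fluo-4 calcium signals recorded for about 2 min after compound addition. Cells: stable human OX2R CHO clone, dye-loaded 30 min at 37 °C plus 30 min at room temperature.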
Take `CCS(=O)(=O)N[C@@H]1[C@H](Cc2cccc(-c3ccccc3)c2F)N(C(=O)C2CCO2)CC1(F)F` (stereo partly drawn) [Example 46, N-[(2S,3R)-4,4-difluoro-2-[(2-fluoro[1,1′-biphenyl]-3-yl)methyl]-1-(oxetane-2-carbonyl)pyrrolidin-3-yl]ethanesulfonamide]: the “OX2R agonist activity (3 μM, %)” value is on record as 102%.
As to `CCS(=O)(=O)N[C@@H]1[C@H](Cc2cccc(-c3cccc(OC)c3)c2F)N(C(=O)C(C)C)CC1(F)F` [Example 511, N-[(2S,3R)-4,4-difluoro-2-[(2-fluoro-3′-methoxy[1,1′-biphenyl]-3-yl)methyl]-1-(2-methylpropanoyl)pyrrolidin-3-yl]ethanesulfonamide], the “OX2R agonist activity (3 μM, %)” value was 98%.
In the case of `O=C(C1CCO1)N1C[C@H](F)[C@H](NS(=O)(=O)C2CC2)[C@@H]1Cc1cccc(-c2ccccc2)c1F` (stereo partly drawn) [Example 482, N-[(2S,3R,4S)-4-fluoro-2-[(2-fluoro[1,1′-biphenyl]-3-yl)methyl]-1-(oxetane-2-carbonyl)pyrrolidin-3-yl]cyclopropanesulfonamide], the “OX2R agonist activity (3 μM, %)” value was 100%.
As to `CN(C)S(=O)(=O)N[C@@H]1[C@H](Cc2cccc(-c3cccc(F)c3)c2F)N(C(=O)[C@H]2CCO2)CC1(F)F` [Example 541, N′-{(2S,3R)-2-[(2,3′-difluoro[1,1′-biphenyl]-3-yl)methyl]-4,4-difluoro-1-[(2R)-oxetane-2-carbonyl]pyrrolidin-3-yl}-N,N-dimethylsulfuric diamide], the “OX2R agonist activity (3 μM, %)” value was found to be 100%.
Regarding `CCS(=O)(=O)N[C@H]1[C@@H](F)CN(C(=O)N2CCC2)[C@H]1Cc1cccc(-c2cccc(F)c2)c1F` [Example 211, N-{(2S,3R,4S)-1-(azetidine-1-carbonyl)-2-[(2,3′-difluoro[1,1′-biphenyl]-3-yl)methyl]-4-fluoropyrrolidin-3-yl}ethanesulfonamide], the “OX2R agonist activity (3 μM, %)” value is given as 94%.
As for `Cc1cccc(-c2cccc(C[C@H]3[C@@H](NS(=O)(=O)C4CC4)[C@@H](F)CN3C(=O)C3CCO3)c2F)c1F` (stereo partly drawn) [Example 490, N-[(2S,3R,4S)-2-[(2,2′-difluoro-3′-methyl[1,1′-biphenyl]-3-yl)methyl]-4-fluoro-1-(oxetane-2-carobnyl)pyrrolidin-3-yl]cyclopropanesulfonamide], the figure is 93%; as for `CCS(=O)(=O)N[C@H]1[C@@H](F)CN(C(=O)C2CC2)[C@H]1Cc1cccc(-c2cccc(Cl)c2)c1F` [Example 516, N-[(2S,3R,4S)-2-[(3′-chloro-2-fluoro[1,1′-biphenyl]-3-yl)methyl]-1-(cyclopropanecarbonyl)-4-fluoropyrrolidin-3-yl]ethanesulfonamide], 102%; as for `CCS(=O)(=O)N[C@@H]1[C@H](Cc2cccc(-c3cccc(F)c3)c2F)N(C(=O)C(C)(C)O)CC1(F)F` [Example 8, N-[(2S,3R)-2-[(2,3′-difluoro[1,1′-biphenyl]-3-yl)methyl]-4,4-difluoro-1-(2-hydroxy-2-methylpropanoyl)pyrrolidin-3-yl]ethanesulfonamide], 99%.
As for `Cc1cccc(-c2cccc(C[C@H]3[C@@H](NS(=O)(=O)N(C)C)C(F)(F)CN3C(=O)[C@H]3CCO3)c2F)c1F` [Example 539, N′-{(2S,3R)-2-[(2,2′-difluoro-3′-methyl[1,1′-biphenyl]-3-yl)methyl]-4,4-difluoro-1-[(2R)-oxetane-2-carbonyl]pyrrolidin-3-yl}-N,N-dimethylsulfuric diamide], the figure is 101%; as for `CS(=O)(=O)N[C@@H]1[C@H](Cc2cccc(-c3cc(F)cc(F)c3)c2F)N(C(=O)[C@H]2C[C@H](F)C2)CC1(F)F` [Example 431, N-{(2S,3R)-4,4-difluoro-1-((1r,3S)-3-fluorocyclobutane-1-carbonyl)-2-[(2,3′,5′-trifluoro[1,1′-biphenyl]-3-yl)methyl]pyrrolidin-3-yl}methanesulfonamide], 106%.
On to `CCS(=O)(=O)N[C@H]1[C@@H](F)CN(C(=O)C(C)(C)O)[C@H]1Cc1cccc(-c2cc(F)cc(F)c2)c1F` [Example 220, N-{(2S,3R,4S)-4-fluoro-1-(2-hydroxy-2-methylpropanoyl)-2-[(2,3′,5′-trifluoro[1,1′-biphenyl]-3-yl)methyl]pyrrolidin-3-yl}ethanesulfonamide], for which the “OX2R agonist activity (3 μM, %)” value was 90%.
On to `CCS(=O)(=O)N[C@H]1[C@@H](F)CN(C(=O)N(C)C)[C@H]1Cc1cccc(-c2cccc(F)c2)c1F` [Example 210, (2S,3R,4S)-2-[(2,3′-difluoro[1,1′-biphenyl]-3-yl)methyl]-3-[(ethanesulfonyl)amino]-4-fluoro-N,N-dimethylpyrrolidine-1-carboxamide], for which the “OX2R agonist activity (3 μM, %)” value is 95%.
As for `O=C(N1CC(F)(F)[C@H](NS(=O)(=O)C2CC2)[C@@H]1Cc1cccc(-c2cccc(F)c2F)c1F)C1(O)CCC1` [Example 424, N-{(2S,3R)-4,4-difluoro-1-(1-hydroxycyclobutane-1-carbonyl)-2-[(2,2′,3′-trifluoro[1,1′-biphenyl]-3-yl)methyl]pyrrolidin-3-yl}cyclopropanesulfonamide], the figure is 95%; as for `CCS(=O)(=O)N[C@@H]1[C@H](Cc2cccc(-c3cccc(OC)c3)c2F)N(C(=O)C2CC2)CC1(F)F` [Example 512, N-{(2S,3R)-1-(cyclopropanecarbonyl)-4,4-difluoro-2-[(2-fluoro-3′-methoxy[1,1′-biphenyl]-3-yl)methyl]pyrrolidin-3-yl}ethanesulfonamide], 95%.
Take `CCS(=O)(=O)N[C@H]1[C@@H](F)CN(C(=O)C(C)(C)O)[C@H]1Cc1cccc(-c2cccc(Cl)c2)c1F` [Example 346, N-[(2S,3R,4S)-2-[(3′-chloro-2-fluoro[1,1′-biphenyl]-3-yl)methyl]-4-fluoro-1-(2-hydroxy-2-methylpropanoyl)pyrrolidin-3-yl]ethanesulfonamide]: the “OX2R agonist activity (3 μM, %)” value is recorded as 93%.
As for `CCS(=O)(=O)N[C@H]1[C@@H](F)CN(C(=O)C(C)C)[C@H]1Cc1cccc(-c2cccc(Cl)c2)c1F` [Example 298, N-[(2S,3R,4S)-2-[(3′-chloro-2-fluoro[1,1′-biphenyl]-3-yl)methyl]-4-fluoro-1-(2-methylpropanoyl)pyrrolidin-3-yl]ethanesulfonamide], the figure is 96%; as for `CS(=O)(=O)N[C@@H]1[C@H](Cc2cccc(-c3cc(F)cc(Cl)c3)c2F)N(C(=O)C2CCO2)CC1(F)F` (stereo partly drawn) [Example 266, N-[(2S,3R)-2-[(3′-chloro-2,5′-difluoro[1,1′-biphenyl]-3-yl)methyl]-4,4-difluoro-1-(oxetane-2-carbonyl)pyrrolidin-3-yl]methanesulfonamide], 83%; as for `CCS(=O)(=O)N[C@@H]1[C@H](Cc2cccc(-c3cc(F)ccc3F)c2F)N(C(=O)C(C)C)CC1(F)F` [Example 147, N-{(2S,3R)-4,4-difluoro-1-(2-methylpropanoyl)-2-[(2,2′,5′-trifluoro[1,1′-biphenyl]-3-yl)methyl]pyrrolidin-3-yl}ethanesulfonamide], 91%.
For the compound `CS(=O)(=O)N[C@@H]1[C@H](Cc2cccc(-c3ccccc3)c2F)N(C(=O)C2(O)CCC2)CC1(F)F` [Example 76, N-[(2S,3R)-4,4-difluoro-2-[(2-fluoro[1,1′-biphenyl]-3-yl)methyl]-1-(1-hydroxycyclobutane-1-carbonyl)pyrrolidin-3-yl]methanesulfonamide], the “OX2R agonist activity (3 μM, %)” value came out at 98%.
